Measured values taken from ChEMBL document CHEMBL1147725, “Identification and biological characterization of 6-aryl-7-isopropylquinazolinones as novel TRPV1 antagonists that are effective in models of chronic pain” (J Med Chem, 2006).
pIC50: −log10 of the molar value.

Experiments:
[1] = Plasma concentration in rat at 10 mg/kg, po after 9 hrs; format: ADME, organism-based; set-up: dose 10 mg/kg, route oral; settings: Wistar Han
[2] = Plasma concentration in rat at 3 mg/kg, po after 9 hrs; format: ADME, organism-based; set-up: dose 3 mg/kg, route oral; settings: Wistar Han
[3] = Plasma concentration in rat at 10 mg/kg, po after 24 hrs; format: ADME, organism-based; set-up: dose 10 mg/kg, route oral; settings: Wistar Han
[4] = test system: Rattus norvegicus; experiment: Concentration in rat brain at 1 mg/kg, iv after 0.083 hrs; format: ADME, organism-based, Wistar Han; set-up: dose 1 mg/kg, route intravenous; settings: in vivo
[5] = test system: Rattus norvegicus; experiment: Concentration in rat brain at 3 mg/kg, po after 0.16 hrs; format: ADME, organism-based, Wistar Han; set-up: dose 3 mg/kg, route oral; settings: in vivo
[6] = test system: Rattus norvegicus; experiment: Concentration in rat brain at 1 mg/kg, iv after 0.033 hrs; format: ADME, organism-based, Wistar Han; set-up: dose 1 mg/kg, route intravenous; settings: in vivo
[7] = Plasma concentration in rat at 10 mg/kg, po after 0.5 hrs; format: ADME, organism-based; set-up: dose 10 mg/kg, route oral; settings: Wistar Han
[8] = Plasma concentration in rat at 1 mg/kg, iv after 1 hrs; format: ADME, organism-based; set-up: dose 1 mg/kg, route intravenous; settings: Wistar Han
[9] = Plasma concentration in rat at 1 mg/kg, iv after 0.033 hrs; format: ADME, organism-based; set-up: dose 1 mg/kg, route intravenous; settings: Wistar Han
[10] = test system: Rattus norvegicus; experiment: Concentration in rat brain at 10 mg/kg, po after 1.5 hrs; format: ADME, organism-based, Wistar Han; set-up: dose 10 mg/kg, route oral; settings: in vivo
[11] = target: Transient receptor potential cation channel subfamily V member 1 (Rattus norvegicus) (UniProt O35433); experiment: Effect on neuropathic mechanical hyperalgesia in rat at 1 hr; format: functional
Transient receptor potential cation channel subfamily V member 1 (Rattus norvegicus), sequence (O35433 whole entry): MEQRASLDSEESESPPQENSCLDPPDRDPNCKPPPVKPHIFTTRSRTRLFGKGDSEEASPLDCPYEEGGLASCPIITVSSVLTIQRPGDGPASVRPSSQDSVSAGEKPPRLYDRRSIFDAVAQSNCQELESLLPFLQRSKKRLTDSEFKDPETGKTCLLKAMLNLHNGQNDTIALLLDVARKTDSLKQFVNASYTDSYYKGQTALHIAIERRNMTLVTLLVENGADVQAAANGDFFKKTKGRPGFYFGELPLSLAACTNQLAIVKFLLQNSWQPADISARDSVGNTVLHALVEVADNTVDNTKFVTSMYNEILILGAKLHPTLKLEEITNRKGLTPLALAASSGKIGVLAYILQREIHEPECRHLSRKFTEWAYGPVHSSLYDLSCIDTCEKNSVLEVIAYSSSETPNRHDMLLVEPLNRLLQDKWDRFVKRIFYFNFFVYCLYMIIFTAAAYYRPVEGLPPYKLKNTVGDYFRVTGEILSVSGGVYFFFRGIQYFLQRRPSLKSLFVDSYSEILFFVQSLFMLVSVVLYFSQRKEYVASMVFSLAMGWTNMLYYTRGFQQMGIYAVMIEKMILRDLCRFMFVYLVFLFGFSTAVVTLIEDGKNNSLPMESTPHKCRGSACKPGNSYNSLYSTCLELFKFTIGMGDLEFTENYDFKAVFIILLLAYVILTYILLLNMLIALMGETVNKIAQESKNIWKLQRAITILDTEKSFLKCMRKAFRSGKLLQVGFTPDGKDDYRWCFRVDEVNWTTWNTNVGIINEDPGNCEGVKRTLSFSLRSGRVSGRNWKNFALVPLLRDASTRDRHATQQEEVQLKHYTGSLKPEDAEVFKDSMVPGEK

[12] = Permeability across Caco-2 cell membrane; format: ADME, cell-based; settings: human, read-out: permeability (converted)
[13] = Tmax in rat plasma at 3 mg/kg, po; format: ADME, organism-based; set-up: dose 3 mg/kg, route oral; settings: Wistar Han
[14] = Plasma concentration in rat at 10 mg/kg, po after 18 hrs; format: ADME, organism-based; set-up: dose 10 mg/kg, route oral; settings: Wistar Han
[15] = test system: Rattus norvegicus; experiment: Concentration in rat brain at 3 mg/kg, po after 1.5 hrs; format: ADME, organism-based, Wistar Han; set-up: dose 3 mg/kg, route oral; settings: in vivo
[16] = Plasma concentration in rat at 10 mg/kg, po after 6 hrs; format: ADME, organism-based; set-up: dose 10 mg/kg, route oral; settings: Wistar Han
[17] = Plasma concentration in rat at 1 mg/kg, iv after 2 hrs; format: ADME, organism-based; set-up: dose 1 mg/kg, route intravenous; settings: Wistar Han
[18] = test system: Rattus norvegicus; experiment: Concentration in rat brain at 10 mg/kg, po after 2 hrs; format: ADME, organism-based, Wistar Han; set-up: dose 10 mg/kg, route oral; settings: in vivo
[19] = Plasma concentration in rat at 10 mg/kg, po after 0.16 hrs; format: ADME, organism-based; set-up: dose 10 mg/kg, route oral; settings: Wistar Han
[20] = Plasma concentration in rat at 3 mg/kg, po after 4 hrs; format: ADME, organism-based; set-up: dose 3 mg/kg, route oral; settings: Wistar Han
[21] = Plasma concentration in rat at 1 mg/kg, iv after 6 hrs; format: ADME, organism-based; set-up: dose 1 mg/kg, route intravenous; settings: Wistar Han
[22] = test system: Rattus norvegicus; experiment: Concentration in rat brain at 3 mg/kg, po after 2 hrs; format: ADME, organism-based, Wistar Han; set-up: dose 3 mg/kg, route oral; settings: in vivo
[23] = test system: Rattus norvegicus; experiment: Concentration in rat brain at 3 mg/kg, po after 4 hrs; format: ADME, organism-based, Wistar Han; set-up: dose 3 mg/kg, route oral; settings: in vivo
[24] = test system: Rattus norvegicus; experiment: Cmax in rat brain at 1 mg/kg, iv; format: ADME, organism-based, Wistar Han; set-up: dose 1 mg/kg, route intravenous; settings: in vivo
[25] = target: Transient receptor potential cation channel subfamily V member 1 (Rattus norvegicus) (UniProt O35433); experiment: Effect on inflammatory mechanical hyperalgesia in rat at 1 hr; format: functional
[26] = Plasma concentration in rat at 10 mg/kg, po after 2 hrs; format: ADME, organism-based; set-up: dose 10 mg/kg, route oral; settings: Wistar Han
[27] = Plasma concentration in rat at 1 mg/kg, iv after 4 hrs; format: ADME, organism-based; set-up: dose 1 mg/kg, route intravenous; settings: Wistar Han
[28] = Volume of distribution in rat at 1 mg/kg, iv; format: ADME, organism-based; set-up: dose 1 mg/kg, route intravenous; settings: Wistar Han, in vivo, read-out: Vdss
[29] = test system: Rattus norvegicus; experiment: Concentration in rat brain at 3 mg/kg, po after 18 hrs; format: ADME, organism-based, Wistar Han; set-up: dose 3 mg/kg, route oral; settings: in vivo
[30] = test system: Rattus norvegicus; experiment: Concentration in rat brain at 10 mg/kg, po after 24 hrs; format: ADME, organism-based, Wistar Han; set-up: dose 10 mg/kg, route oral; settings: in vivo
[31] = Plasma concentration in rat at 10 mg/kg, po after 1 hrs; format: ADME, organism-based; set-up: dose 10 mg/kg, route oral; settings: Wistar Han
[32] = target: Transient receptor potential cation channel subfamily V member 1 (Rattus norvegicus, UniProt O35433); experiment: Inhibition of low pH activation of rat TRPV1; format: functional
Transient receptor potential cation channel subfamily V member 1, sequence (O35433 whole entry): as above

[33] = Cmax in rat plasma at 3 mg/kg, po; format: ADME, organism-based; set-up: dose 3 mg/kg, route oral; settings: Wistar Han
[34] = test system: Rattus norvegicus; experiment: Concentration in rat brain at 1 mg/kg, iv after 4 hrs; format: ADME, organism-based, Wistar Han; set-up: dose 1 mg/kg, route intravenous; settings: in vivo
[35] = Plasma concentration in rat at 3 mg/kg, po after 1 hrs; format: ADME, organism-based; set-up: dose 3 mg/kg, route oral; settings: Wistar Han
[36] = test system: Rattus norvegicus; experiment: Concentration in rat brain at 1 mg/kg, iv after 0.5 hrs; format: ADME, organism-based, Wistar Han; set-up: dose 1 mg/kg, route intravenous; settings: in vivo
[37] = Plasma concentration in rat at 3 mg/kg, po after 0.5 hrs; format: ADME, organism-based; set-up: dose 3 mg/kg, route oral; settings: Wistar Han
[38] = Plasma concentration in rat at 3 mg/kg, po after 18 hrs; format: ADME, organism-based; set-up: dose 3 mg/kg, route oral; settings: Wistar Han

concentration at 9 h [1]: 2900 nM
concentration at 9 h [2]: 904 nM
concentration at 24 h [3]: 106 nM
Ct [4]: 960 pmol/g
Ct [5]: 32 pmol/g
Ct [6]: 764 pmol/g
concentration at 0.5 h [7]: 1460 nM
concentration at 1 h [8]: 1330 nM
concentration at 0.033 h [9]: 3540 nM
Ct [10]: 1038 pmol/g
ED50 [11]: 2.6 mg/kg
Papp [12]: 4.37 ×10⁻⁶ cm/s
Tmax [13]: 4 h
concentration at 18 h [14]: 583 nM
Ct [15]: 951 pmol/g
concentration at 6 h [16]: 3220 nM
concentration at 2 h [17]: 1080 nM
Ct [18]: 1424 pmol/g
concentration at 0.16 h [19]: 71 nM
concentration at 4 h [20]: 1910 nM
concentration at 6 h [21]: 488 nM
Ct [22]: 1364 pmol/g
Ct [23]: 1666 pmol/g
Cmax [24]: 1079 pmol/g
ED50 [25]: 4.7 mg/kg
concentration at 2 h [26]: 4340 nM
concentration at 4 h [27]: 726 nM
Vd [28]: 1.55 L/kg
Ct [29]: < 125 pmol/g
Ct [30]: < 25 pmol/g
concentration at 1 h [31]: 2680 nM
pIC50 [32]: 6.98
Cmax [33]: 1910 nM
Ct [34]: 155 pmol/g
concentration at 1 h [35]: 1530 nM
Ct [36]: 1079 pmol/g
concentration at 0.5 h [37]: 599 nM
concentration at 18 h [38]: 90 nM
Compound: Cc1nc2cc(C(C)C)c(-c3ccc(Cl)c(OCC4CC4)c3)cc2c(=O)[nH]1
